Experimental data from ChEMBL document CHEMBL1155509, “3-Indolyl sultams as selective CRTh2 antagonists” (Bioorg Med Chem Lett, 2010).

Key:
[1] = target: T1, Prostaglandin D2 receptor 2 (Homo sapiens, UniProt Q9Y5Y4); assay: Binding affinity to human prostaglandin D2 receptor by cell based radioligand displacement assay
T1 sequence (Q9Y5Y4 whole entry): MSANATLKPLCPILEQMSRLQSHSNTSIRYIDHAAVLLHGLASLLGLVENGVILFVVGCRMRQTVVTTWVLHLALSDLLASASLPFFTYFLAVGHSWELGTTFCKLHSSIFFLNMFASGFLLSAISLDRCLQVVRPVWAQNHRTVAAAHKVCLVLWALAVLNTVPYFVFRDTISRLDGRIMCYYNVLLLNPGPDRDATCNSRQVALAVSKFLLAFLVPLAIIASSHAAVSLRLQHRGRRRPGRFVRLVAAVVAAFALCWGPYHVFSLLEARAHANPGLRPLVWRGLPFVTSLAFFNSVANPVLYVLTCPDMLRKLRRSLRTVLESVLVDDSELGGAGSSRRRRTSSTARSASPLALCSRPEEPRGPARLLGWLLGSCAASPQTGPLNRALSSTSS

[2] = target: T1, Prostaglandin D2 receptor 2; assay: Antagonist activity at human prostaglandin D2 receptor assessed as inhibition of PGD2-induced receptor activation by cell based FLIPR assay; format: functional
[3] = target: T2, Prostaglandin D2 receptor (Homo sapiens) (UniProt Q13258); assay: Binding affinity to human prostaglandin D1 receptor at 10 uM by radioligand displacement assay
T2 sequence (whole entry): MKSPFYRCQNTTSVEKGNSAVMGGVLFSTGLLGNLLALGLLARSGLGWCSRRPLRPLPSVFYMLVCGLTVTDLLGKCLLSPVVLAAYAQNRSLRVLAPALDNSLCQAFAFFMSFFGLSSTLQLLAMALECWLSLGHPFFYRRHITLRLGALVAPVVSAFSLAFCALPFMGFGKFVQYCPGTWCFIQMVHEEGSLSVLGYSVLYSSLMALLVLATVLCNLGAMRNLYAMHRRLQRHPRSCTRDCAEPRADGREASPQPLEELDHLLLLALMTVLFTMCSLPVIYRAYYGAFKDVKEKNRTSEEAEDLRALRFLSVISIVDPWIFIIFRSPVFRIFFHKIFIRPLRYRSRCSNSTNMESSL

[4] = target: T3, Thromboxane A2 receptor (Homo sapiens) (UniProt P21731); assay: Binding affinity to human thromboxane A2 receptor at 10 uM by radioligand displacement assay
T3 sequence (whole entry): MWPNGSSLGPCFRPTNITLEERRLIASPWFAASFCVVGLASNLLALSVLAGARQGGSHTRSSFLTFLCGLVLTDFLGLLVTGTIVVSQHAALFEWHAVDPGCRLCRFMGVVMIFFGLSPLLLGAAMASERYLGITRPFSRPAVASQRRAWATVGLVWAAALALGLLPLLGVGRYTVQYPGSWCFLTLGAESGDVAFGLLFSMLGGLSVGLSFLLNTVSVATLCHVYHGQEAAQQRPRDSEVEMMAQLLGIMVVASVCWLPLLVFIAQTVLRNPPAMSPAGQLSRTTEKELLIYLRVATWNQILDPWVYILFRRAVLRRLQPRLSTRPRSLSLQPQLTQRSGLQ

Thromboxane A2 receptor = target: T4, Thromboxane A2 receptor (Homo sapiens, UniProt P21731); assay: Binding affinity to human thromboxane A2 receptor by radioligand displacement assay
T4 sequence (P21731 whole entry): T3 sequence (whole entry)

Row | SMILES | Ki [1] [µM] | further results
1 | Cc1c(C2c3ccccc3S(=O)(=O)N2C(C)C)c2ccccc2n1CC(=O)O (racemic) | 0.92 | –
2 | Cc1c(C2c3ccccc3S(=O)(=O)N2CCC(C)C)c2ccccc2n1CC(=O)O (racemic) | 0.56 | –
3 | Cc1noc(C)c1CN1C(c2c(C)n(CC(=O)O)c3ccccc23)c2ccccc2S1(=O)=O (racemic) | 0.012 | Ki [2]: 0.028 µM; inhibition [3]: 0%; inhibition [4]: 0%
4 | Cc1c(C2c3ccccc3S(=O)(=O)N2CCOc2ccccc2)c2ccccc2n1CC(=O)O (racemic) | 0.029 | inhibition [3]: 0%; Ki (Thromboxane A2 receptor): 7.8 µM
5 | Cc1c(C2c3ccccc3S(=O)(=O)N2c2ccccc2)c2ccccc2n1CC(=O)O (racemic) | 0.48 | –
6 | Cc1noc(C)c1CN1C(c2c(C)n(CC(=O)O)c3ccccc23)CCS1(=O)=O (racemic) | 0.023 | –
7 | Cc1c(C2c3ccccc3S(=O)(=O)N2CCCOc2ccccc2)c2ccccc2n1CC(=O)O (racemic) | 1.4 | –
8 | Cc1c(C2c3ccccc3S(=O)(=O)N2CCc2ccccc2)c2ccccc2n1CC(=O)O (racemic) | 0.22 | –
9 | Cc1noc(-c2ccccc2)c1CN1C(c2c(C)n(CC(=O)O)c3ccccc23)c2ccccc2S1(=O)=O (racemic) | 0.013 | –
10 | Cc1noc(C)c1CN1C(C)(c2c(C)n(CC(=O)O)c3ccccc23)c2ccccc2S1(=O)=O (racemic) | 0.038 | –
11 | O=C(O)Cn1cc(C2c3ccccc3S(=O)(=O)N2CCc2ccccc2)c2ccccc21 (racemic) | 0.63 | –
12 | Cc1noc(C)c1CN1C(c2c(C)n(CC(=O)O)c3ccc(Cl)cc23)c2ccccc2S1(=O)=O (racemic) | 0.008 | inhibition [3]: 15%; inhibition [4]: 0%
13 | Cc1c(C2c3ccccc3S(=O)(=O)N2CCOc2ccc(Cl)cc2)c2ccccc2n1CC(=O)O (racemic) | 0.035 | inhibition [3]: 28%; Ki (Thromboxane A2 receptor): 3.4 µM
14 | Cc1c(C2c3ccccc3S(=O)(=O)N2CCO)c2ccccc2n1CC(=O)O (racemic) | 1.4 | –
15 | O=C(O)Cn1cc(C2c3ccccc3S(=O)(=O)N2Cc2ccccc2)c2ccccc21 (racemic) | 1.1 | –

More lines, main results first:

Row | Ki [1] [µM] | SMILES | further results
16 | 0.018 | Cc1noc(C)c1CN1C(c2cn(CC(=O)O)c3ccccc23)c2ccccc2S1(=O)=O (racemic) | –
17 | 1.5 | Cc1ccc2c(c1)c(C1NS(=O)(=O)c3ccccc31)c(C)n2CC(=O)O (racemic) | –
18 | 8.1 | CN1C(c2cn(CC(=O)O)c3ccccc23)c2ccccc2S1(=O)=O (racemic) | –
19 | 0.43 | Cc1c(C2NS(=O)(=O)c3ccccc32)c2cc(F)ccc2n1CC(=O)O (racemic) | –
20 | 0.69 | Cc1c(C2NS(=O)(=O)c3ccccc32)c2cc(Cl)ccc2n1CC(=O)O (racemic) | –
21 | 2.8 | Cc1c(C2NS(=O)(=O)c3ccccc32)c2ccccc2n1CC(=O)O (racemic) | –
22 | 2.9 | O=C(O)Cn1cc(C2NS(=O)(=O)c3ccccc32)c2cc(Cl)ccc21 (racemic) | –
23 | 2.9 | Cc1ccc2c(c1)c(C1NS(=O)(=O)c3ccccc31)cn2CC(=O)O (racemic) | –
24 | 9.2 | O=C(O)Cn1cc(C2NS(=O)(=O)c3ccccc32)c2ccccc21 (racemic) | –
25 | 2.3 | CC(C)CCN1C(c2cn(CC(=O)O)c3ccccc23)c2ccccc2S1(=O)=O (racemic) | –
26 | 2 | N#Cc1ccc2c(c1)c(C1NS(=O)(=O)c3ccccc31)cn2CC(=O)O (racemic) | –
